The record followed here is patent publication US11371077B2, “High throughput cell-based screening for aptamers” (MeiraGTx UK II Limited, priority 2016, dated 2022).

Where a name gives a salt, the structure may show the parent alone. Read-outs that look alike come from different tables or passages of the source. Where a SMILES comes first, the peptide text is derived from it. [ ]: non-standard residue; d: D form. The star is where a group is joined. Sta = CC(C)C[C@H](N)[C@@H](O)CC(=O)O; Isovaleryl = CC(C)CC(=O)*

Common to all, as to assay type: cell-based
For one data set, the system named is gdg6-A8 riboswitch. Description: Luciferase reporter assay, gdg6-A8 riboswitch, transfected HEK 293 cells. To be noted: for Fold Induction of luciferase activity: 100 µM; for fold induction at 100 µM: Homo sapiens, HEK293, gdg6-A8 riboswitch, Prestwick library compounds at 100 μM, HEK 293. The source says:
(§1) Riboswitches were constructed as described in PCT/US2016/016234 (in particular Examples 3 to 6), incorporated herein by reference. A truncated human beta-globin intron sequence was synthesized and inserted in the coding sequence of a firefly luciferase gene. A mutant human DHFR exon 2 was synthesized and inserted in the middle of this truncated beta-globin intron sequence using Golden gate cloning strategy. Aptamers including xpt-G/A^1, ydhl-G/A^2, yxj^3, add^4, gdg6-G/A^5 (citations for the aptamers are incorporated herein by reference) were synthesized as oligonucleotides (“oligos”) with 4 nucleotide overhang at the 5′ end that are complementary to two different BsaI sites individually (IDT), annealed and ligated to BsaI-digested mDHFR-Luci-acceptor vector.
(§2) 3.5×10^4 HEK 293 cells were plated in a 96-well flat bottom plate the day before transfection. Plasmid DNA (500 ng) was added to a tube or a 96-well U-bottom plate. Separately, TransIT-293 reagent (Mirus; 1.4 μL) was added to 50 μL Opti-mem I media (Life Technologies), and allowed to sit for 5 minutes at room temperature (RT). Then, 50 μL of this diluted transfection reagent was added to the DNA, mixed, and incubated at RT for 20 min. Finally, 7 μL of this solution was added to a well of cells in the 96-well plate.
(§3) 24 hours after media change, plates were removed from the incubator, and equilibrated to RT for several minutes on a lab bench, then aspirated. Glo-lysis buffer (Promega, 100 μL, RT) was added, and the plates maintained at RT for at least 5 minutes. Then, the well contents were mixed by 50 μL trituration, and 20 μL of each sample was mixed with 20 μL of bright-glo reagent (Promega) that had been diluted to 10% in glo-lysis buffer. 96 wells were spaced on an opaque white 384-well plate. Following a 5 min incubation at RT, luminescence was measured using a Tecan machine with 500 mSec read time. The luciferase activity was expressed as mean relative light unit (RLU)±S.D., and fold induction was calculated as the luciferase activity obtained with guanine treatment divided by luciferase activity obtained without guanine treatment.
In general terms: Reporter assays use an easily measured gene product as a stand-in for the process of interest.

For a further data set, the system named is gdg6-G8 riboswitch. Description: Luciferase reporter assay, gdg6-G8 riboswitch, transfected HEK 293 cells. To be noted: for fold induction at 100 µM: Homo sapiens, HEK293.
Text: as §1, §2, §3

A further data set deals with add-A6 riboswitch. Briefly: cells. The note with it: add-A6 riboswitch, Prestwick library compounds at 100 μM, HEK 293; for fold induction at 100 µM: Homo sapiens, HEK293, read-out: Fold Induction of luciferase activity.
Text: as §1, §2, §3

The next data set relates to add-G6 riboswitch. Briefly: cells. To be noted: add-G6 riboswitch, Prestwick library compounds at 100 μM, HEK 293; for fold induction at 100 µM: Homo sapiens, HEK293, read-out: Fold Induction of luciferase activity.
Text: (§4) A truncated human beta-globin intron sequence was synthesized and inserted in the coding sequence of a firefly luciferase gene. A mutant human DHFR exon 2 was synthesized and inserted in the middle of this truncated beta-globin intron sequence using Golden gate cloning strategy. Aptamers including xpt-G/A^1, ydhl-G/A^2, yxj^3, add^4, gdg6-G/A^5 (citations for the aptamers are incorporated herein by reference) were synthesized as oligonucleotides (“oligos”) with 4 nucleotide overhang at the 5′ end that are complementary to two different BsaI sites individually (IDT), annealed and ligated to BsaI-digested mDHFR-Luci-acceptor vector.
(§5) 3.5×10^4 HEK 293 cells were plated in a 96-well flat bottom plate the day before transfection. Plasmid DNA (500 ng) was added to a tube or a 96-well U-bottom plate. […] Then, 50 μL of this diluted transfection reagent was added to the DNA, mixed, and incubated at RT for 20 min. Finally, 7 μL of this solution was added to a well of cells in the 96-well plate.
as §3, with “The luciferase activity was expressed as mean relative light unit (RLU)±S.D., and fold induction was calculated as the luciferase activity obtained with guanine treatment divided by luciferase activity obtained without guanine treatment.” left out

The next data set has as its system yxj-A6 riboswitch. Briefly: cells. To be noted: yxj-A6 riboswitch, Prestwick library compounds at 100 μM, HEK 293; for fold induction at 100 µM: Homo sapiens, HEK293, read-out: Fold Induction of luciferase activity.
Text: as §4, §2
as §3, with “The luciferase activity was expressed as mean relative light unit (RLU)±S.D., and fold induction was calculated as the luciferase activity obtained with guanine treatment divided by luciferase activity obtained without guanine treatment.” left out

The next data set deals with xpt-A8 riboswitch. Description: cells. To be noted: Homo sapiens, HEK293; xpt-A8 riboswitch; Prestwick library compounds at 100 μM; HEK 293; read-out: Fold Induction of luciferase activity.
Text: as §1, §2, §3

The test system of a further data set is xpt-G17 riboswitch. Description: Luciferase reporter assay, xpt-G17 riboswitch, transfected HEK 293 cells. To be noted: preliminary screen; for fold induction at 100 µM: Homo sapiens, HEK293, xpt-G17 riboswitch; for fold induction at 100 µM / Fold Induction of luciferase activity: Prestwick library compounds at 100 μM, HEK 293; for Fold Induction of luciferase activity: xpt-G17 riboswitch.
Text: as §4, §2, §3

A further data set deals with ydhl-A6 riboswitch. Description: Luciferase reporter assay, ydhl-A6 riboswitch, transfected HEK 293 cells. The note with it: for fold induction at 100 µM: Homo sapiens.
Text: as §4, §5, §3

The test system of the next data set is ydhl-G8 riboswitch. Description: Luciferase reporter assay, ydhl-G8 riboswitch, transfected HEK 293 cells. The note with it: for Fold Induction of luciferase activity: ydhl-G8 riboswitch, Prestwick library compounds at 100 μM, HEK 293.
Text: as §4, §5, §3

[1] abbreviates: gdg6-G8 riboswitch, Prestwick library compounds at 100 μM, HEK 293.
[2] abbreviates: HEK293, read-out: Fold Induction of luciferase activity, ydhl-A6 riboswitch, Prestwick library compounds at 100 μM, HEK 293.
The mark [3] stands for this setting: HEK293, read-out: Fold Induction of luciferase activity.
Where [4] appears, read: ydhl-A6 riboswitch, Prestwick library compounds at 100 μM, HEK 293.

As for Trimipramine maleate salt, the “Fold Induction of luciferase activity” value in the data set with gdg6-A8 riboswitch was 5.3 fold; with gdg6-G8 riboswitch (100 µM), 3.3 fold; in the data set on add-A6 riboswitch, 3.4 fold; in the data set on add-G6 riboswitch it was 3.4 fold; in the data set with yxj-A6 riboswitch it was 3.3 fold.

Take Deptropine citrate: the “Fold Induction of luciferase activity” value in the data set with add-A6 riboswitch is recorded as 3.3 fold.

Consider `Cn1cnc([N+](=O)[O-])c1Sc1ncnc2nc[nH]c12` [Azathioprine], for which the fold induction at 100 µM with gdg6-A8 riboswitch was 19.9; in the data set with gdg6-G8 riboswitch (setting [1]), 16.2; in the data set on add-A6 riboswitch it was 6.5; in the data set on xpt-A8 riboswitch, 5.9; with add-G6 riboswitch, 11.4; with yxj-A6 riboswitch it was 6.6. Also, in the data set with xpt-G17 riboswitch, the fold induction at 100 µM is 6.2.

For the compound `NS(=O)(=O)c1cc2c(cc1Cl)NCNS2(=O)=O` [Hydrochlorothiazide], the fold induction at 100 µM with ydhl-A6 riboswitch (setting [2]) is 3.3.

With `O=C(O)CCc1nc(-c2ccccc2)c(-c2ccccc2)o1` [Oxaprozin], the fold induction at 100 µM with ydhl-A6 riboswitch (setting [2]) worked out at 3.4.

Regarding `OCCN1CCN(CCCN2c3ccccc3C=Cc3ccccc32)CC1` [Opipramol dihydrochloride], the fold induction at 100 µM with gdg6-A8 riboswitch was 3.1; in the data set on add-A6 riboswitch it was 4.3.

As to `O=C(CCCN1CCC(n2c(O)nc3ccccc32)CC1)c1ccc(F)cc1` [Benperidol], the fold induction at 100 µM in the data set with ydhl-A6 riboswitch (setting [2]) is 3.1.

Take `Clc1ccccc1CN1CCc2sccc2C1` [Ticlopidine hydrochloride]: the fold induction at 100 µM in the data set with ydhl-A6 riboswitch (HEK293, ydhl-A6 riboswitch, Prestwick library compounds at 100 μM, HEK 293, read-out: Fold Induction of luciferase activity) is 3.1.

Take `CC[C@]12CCCN3CCc4c(n(c5ccccc45)[C@@](O)(C(=O)OC)C1)[C@@H]32` [Vincamine]: in the data set with ydhl-A6 riboswitch (setting [3]), the fold induction at 100 µM stood at 3.3.

Take `CN1CCC(=C2c3ccccc3Sc3ccccc32)CC1` [Pimethixene maleate]: the fold induction at 100 µM turned out to be 9.2 in the data set on gdg6-A8 riboswitch; 5.1 in the data set on gdg6-G8 riboswitch (setting [1]); 4.2 with add-A6 riboswitch; 3.3 in the data set on xpt-A8 riboswitch; 6.6 with add-G6 riboswitch; 4.9 with yxj-A6 riboswitch. In addition, in the data set with xpt-G17 riboswitch, the fold induction at 100 µM was determined as 4.7.

Take `C[C@]12CC[C@H](O)C[C@H]1CC[C@@H]1[C@@H]2C[C@@H](O)[C@]2(C)[C@@H](C3=CC(=O)OC3)CC[C@]12O` [Digoxigenin]: in the data set on ydhl-A6 riboswitch (setting [2]), the fold induction at 100 µM worked out at 4.5. Moreover, the “Fold Induction of luciferase activity” value with ydhl-A6 riboswitch (ydhl-A6 riboswitch, Prestwick library compounds at 100 μM, HEK 293, 100 µM) worked out at 3.3 fold.

Take `CC(=O)c1ccc2c(c1)N(CCCN(C)C)c1ccccc1S2.O=C(O)/C=C\C(=O)O` [Acetopromazine maleate salt]: the “Fold Induction of luciferase activity” value turned out to be 8.6 fold in the data set on gdg6-A8 riboswitch; 3.2 fold in the data set on gdg6-G8 riboswitch (100 µM); 3.5 fold in the data set on add-A6 riboswitch; 5.0 fold in the data set on add-G6 riboswitch; 3.9 fold with ydhl-G8 riboswitch; 3.1 fold in the data set on yxj-A6 riboswitch. Moreover, the “Fold Induction of luciferase activity” value in the data set on xpt-G17 riboswitch is on record as 4.5 fold.

Regarding `COc1cc2nc(N3CCN(C(=O)C4CCCO4)CC3)nc(N)c2cc1OC` (centres unmarked) [Terazosin hydrochloride], in the data set with add-A6 riboswitch, the fold induction at 100 µM came to 3.5.

In the case of `C=CC[N@@+]12CC[C@@]34c5ccccc5N5/C=C6/[C@H]7C[C@H]8[C@@]9(CC[N@@+]8(CC=C)C/C7=C/CO)c7ccccc7N(/C=C(/[C@@H](C[C@@H]31)/C(=C\CO)C2)[C@H]54)[C@@H]69.[Cl-].[Cl-]` [Alcuronium chloride], in the data set on add-A6 riboswitch, the “Fold Induction of luciferase activity” value stood at 4.2 fold.

With `CNC1(C)C2CCC(C2)C1(C)C` (centres unmarked) [Mecamylamine hydrochloride], the fold induction at 100 µM in the data set with ydhl-A6 riboswitch (setting [2]) was found to be 3.2.

Turning to Trimeprazine tartrate, the “Fold Induction of luciferase activity” value with gdg6-A8 riboswitch is 8.7 fold; in the data set with gdg6-G8 riboswitch (100 µM) it was 6.2 fold; with add-A6 riboswitch it was 4.0 fold; in the data set with add-G6 riboswitch, 6.2 fold; with ydhl-G8 riboswitch it was 5.0 fold; in the data set on yxj-A6 riboswitch, 7.0 fold. The “Fold Induction of luciferase activity” value with xpt-G17 riboswitch is on record as 4.9 fold.

Turning to `COC1=C(OC)C(=O)C(CCCCCCCCCCO)=C(C)C1=O` [Idebenone], the figures for the fold induction at 100 µM with add-G6 riboswitch, in the data set on ydhl-A6 riboswitch (setting [3]) and in the data set with xpt-G17 riboswitch were 6.7, 3.5 and 3.3, respectively.

Regarding `NC(=O)C[S+]([O-])C(c1ccccc1)c1ccccc1` (centres unmarked) [Modafinil], in the data set with ydhl-A6 riboswitch (setting [2]), the fold induction at 100 µM was 3.8.

Take `C[C@@H]1[C@H](O)[C@@H](C)/C=C/C=C/C=C/C=C/C=C/C=C/C=C/[C@H](O[C@@H]2O[C@H](C)[C@@H](O)[C@H](N)[C@@H]2O)C[C@@H]2O[C@](O)(C[C@@H](O)C[C@@H](O)[C@H](O)CC[C@@H](O)C[C@@H](O)CC(=O)O[C@H]1C)C[C@H](O)[C@H]2C(=O)O` [Amphotericin B]: the “Fold Induction of luciferase activity” value is given as 3.8 fold in the data set with gdg6-G8 riboswitch (setting [1]), 10.7 fold with add-G6 riboswitch, 6.5 fold in the data set on ydhl-G8 riboswitch and 21.5 fold in the data set with xpt-G17 riboswitch. Further, the “response of guanine riboswitch xpt-G17 to compound (FIG. 1e)” value in the data set with xpt-G17 riboswitch (Prestwick library at 100 μM) is reported as “responded”.

For the compound `CCOC(=O)Nc1ccc2c(c1)N(C(=O)CCN1CCOCC1)c1ccccc1S2` [Moricizine hydrochloride], the fold induction at 100 µM with ydhl-A6 riboswitch (setting [3]) is 10.3.

For the compound `O=C(CCCCCCC(=O)Nc1ccccc1)NO` [Vorinostat], the fold induction at 100 µM came to 6.4 in the data set on gdg6-A8 riboswitch; 10.2 with gdg6-G8 riboswitch (setting [1]); 3.6 in the data set with add-G6 riboswitch; 3 with ydhl-G8 riboswitch (Homo sapiens, HEK293, read-out: Fold Induction of luciferase activity).

On to `CC(C)CC(=O)N[C@H](C(=O)N[C@H](C(=O)N[C@@H](CC(C)C)[C@@H](O)CC(=O)N[C@@H](C)C(=O)N[C@@H](CC(C)C)[C@@H](O)CC(=O)O)C(C)C)C(C)C` [Pepstatin A] (Isovaleryl-VV[Sta]A[Sta]-OH), for which the “Fold Induction of luciferase activity” value in the data set on ydhl-A6 riboswitch (setting [4]) was 4.0 fold.

Turning to `Nc1ccc(S(=O)(=O)Nc2cnc3ccccc3n2)cc1` [Sulfaquinoxaline sodium], the fold induction at 100 µM turned out to be 3.3 with add-A6 riboswitch and 3.4 with yxj-A6 riboswitch.

Turning to `CCN1CCCC(OC(=O)C(c2ccccc2)c2ccccc2)C1` (centres unmarked) [Piperidolate hydrochloride], the fold induction at 100 µM in the data set with ydhl-A6 riboswitch (setting [3]) was 3.4.

Alverine citrate salt: the “Fold Induction of luciferase activity” value in the data set on ydhl-A6 riboswitch (setting [4]) was 4.2 fold.
